Test system: P12-Ichikawa
Test: cell viability relative to DMSO control; higher = less cytotoxic
Details: 48 h
Procedure, shortened: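 Cells were incubated for 48 h at 37°C before CellTiter-Glo One luminescence was read. The cells were NOMO1 or SEM (500 cells/well) or P12-Ichikawa (1000 cells/well) leukemia cells, adapted for at least four passages in each medium and seeded in 1536-well plates (5 μl). Dosing used library compounds in DMSO applied by pin over 11 threefold points, 47 μM to 0.79 nM. Viability is the per-plate percentage of DMSO wells, with cell-free wells as background.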

[1] = HPLM + 10% dialyzed FBS, 0.000781 µM
[2] = HPLM + 10% dialyzed FBS, 0.00234 µM
[3] = HPLM + 10% dialyzed FBS, 0.00702 µM
[4] = HPLM + 10% dialyzed FBS, 0.0211 µM
[5] = HPLM + 10% dialyzed FBS, 0.0632 µM
[6] = HPLM + 10% dialyzed FBS, 0.19 µM
[7] = HPLM + 10% dialyzed FBS, 0.569 µM
[8] = HPLM + 10% dialyzed FBS, 1.71 µM
[9] = HPLM + 10% dialyzed FBS, 5.12 µM
[10] = HPLM + 10% dialyzed FBS, 15.4 µM
[11] = HPLM + 10% dialyzed FBS, 46.1 µM
[12] = RPMI 5 mM glucose + 10% FBS, 0.000781 µM
[13] = RPMI 5 mM glucose + 10% FBS, 0.00234 µM
[14] = RPMI 5 mM glucose + 10% FBS, 0.00702 µM
[15] = RPMI 5 mM glucose + 10% FBS, 0.0211 µM
[16] = RPMI 5 mM glucose + 10% FBS, 0.0632 µM
[17] = RPMI 5 mM glucose + 10% FBS, 0.19 µM
[18] = RPMI 5 mM glucose + 10% FBS, 0.569 µM
[19] = RPMI 5 mM glucose + 10% FBS, 1.71 µM
[20] = RPMI 5 mM glucose + 10% FBS, 5.12 µM
[21] = RPMI 5 mM glucose + 10% FBS, 15.4 µM
[22] = RPMI 5 mM glucose + 10% FBS, 46.1 µM
[23] = RPMI 5 mM glucose + 10% dialyzed FBS, 0.000781 µM
[24] = RPMI 5 mM glucose + 10% dialyzed FBS, 0.00234 µM
[25] = RPMI 5 mM glucose + 10% dialyzed FBS, 0.00702 µM
[26] = RPMI 5 mM glucose + 10% dialyzed FBS, 0.0211 µM
[27] = RPMI 5 mM glucose + 10% dialyzed FBS, 0.0632 µM
[28] = RPMI 5 mM glucose + 10% dialyzed FBS, 0.19 µM
[29] = RPMI 5 mM glucose + 10% dialyzed FBS, 0.569 µM
[30] = RPMI 5 mM glucose + 10% dialyzed FBS, 1.71 µM
[31] = RPMI 5 mM glucose + 10% dialyzed FBS, 5.12 µM
[32] = RPMI 5 mM glucose + 10% dialyzed FBS, 15.4 µM
[33] = RPMI 5 mM glucose + 10% dialyzed FBS, 46.1 µM

Compound | cell viability [1] | cell viability [2] | cell viability [3] | cell viability [4] | cell viability [5] | cell viability [6] | cell viability [7] | cell viability [8] | cell viability [9] | cell viability [10] | cell viability [11] | cell viability [12] | cell viability [13] | cell viability [14] | cell viability [15] | cell viability [16] | cell viability [17] | cell viability [18] | cell viability [19] | cell viability [20] | cell viability [21] | cell viability [22] | cell viability [23] | cell viability [24] | cell viability [25] | cell viability [26] | cell viability [27] | cell viability [28] | cell viability [29] | cell viability [30] | cell viability [31] | cell viability [32] | cell viability [33]
NC(=O)c1ccc(-c2nc(-c3ccc4c(c3)OCCO4)c(-c3ccccn3)[nH]2)cc1 | 120% | 125% | 125% | 118% | 122% | 119% | 124% | 122% | 117% | 117% | 111% | 122% | 126% | 115% | 129% | 117% | 115% | 118% | 131% | 116% | 114% | 110% | 121% | 114% | 120% | 126% | 126% | 121% | 121% | 110% | 127% | 117% | 106%
O=C(NC1CCOCC1)c1ccc(-c2cc(-c3c[nH]nc3-c3ccccn3)ccn2)cc1 | 104% | 103% | 110% | 104% | 111% | 108% | 109% | 96.6% | 98.3% | 92.4% | 104% | 104% | 109% | 110% | 109% | 109% | 94.1% | 98.4% | 85.7% | 99.9% | 97.8% | 99.9% | 114% | 109% | 103% | 105% | 103% | 102% | 96% | 105% | 88.4% | 97.5% | 89.8%
CNC(=O)c1cccc(-c2ccc3c(N4CCOC[C@@H]4C)nc(N4CCOC[C@@H]4C)nc3n2)c1 | 104% | 106% | 95% | 92.4% | 87.1% | 80.2% | 78.8% | 67.7% | 65.6% | 64.8% | 62.4% | 93.7% | 98.6% | 86.7% | 75.4% | 67.2% | 57.2% | 55.7% | 54.3% | 54.9% | 48.5% | 44.5% | 98.4% | 102% | 89.5% | 80.6% | 72.8% | 61.8% | 64.6% | 58.1% | 49.8% | 44.7% | 39.9%

— the supplement of paper PMC11451515
